The values that follow come from patent publication US11173151B2, “Substituted triazole derivatives and uses thereof” (BAYER AKTIENGESELLSCHAFT, priority 2017, dated 2021).

One experiment addresses T1, human V1a receptor (Homo sapiens, UniProt P37288).
T1 construct: expressed in transfected cells; host or cells: CHO K1 (ATCC), also stably transfected with a modified aequorin
Kind of experiment: Cellular in vitro assay for determining vasopressin receptor activity, V1a receptor cell line (CHO, aequorin luminescence). The experiment is classed as cell-based. Particulars: for IC50: CHO cell line transfected with human V1a receptor, [Arg]-vasopressin at EC50 concentration, read-out: IC50 hV1a; for ratio IC50 hV2/hV1a: selectivity ratio IC50 hV2 / IC50 hV1a. The procedure, abridged: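 IC50 from inhibition of [Arg]-vasopressin (EC50 concentration)-evoked aequorin luminescence in CHO K1 cells, with 10-min compound pretreatment.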

A further experiment has as its target T2, human V2 receptor (Homo sapiens, UniProt P30518).
T2 construct: expressed in transfected cells; host or cells: CHO K1 (ATCC) expressing firefly luciferase under a CRE-responsive promoter
Kind of experiment: Cellular in vitro assay for determining vasopressin receptor activity, V2 receptor cell line (CHO, CRE-luciferase). The format is cell-based. As to conditions: CHO cell line transfected with human V2 receptor; [Arg8]-vasopressin at EC50 concentration, 3 hours; read-out: IC50 hV2.

T2 sequence (P30518 whole entry): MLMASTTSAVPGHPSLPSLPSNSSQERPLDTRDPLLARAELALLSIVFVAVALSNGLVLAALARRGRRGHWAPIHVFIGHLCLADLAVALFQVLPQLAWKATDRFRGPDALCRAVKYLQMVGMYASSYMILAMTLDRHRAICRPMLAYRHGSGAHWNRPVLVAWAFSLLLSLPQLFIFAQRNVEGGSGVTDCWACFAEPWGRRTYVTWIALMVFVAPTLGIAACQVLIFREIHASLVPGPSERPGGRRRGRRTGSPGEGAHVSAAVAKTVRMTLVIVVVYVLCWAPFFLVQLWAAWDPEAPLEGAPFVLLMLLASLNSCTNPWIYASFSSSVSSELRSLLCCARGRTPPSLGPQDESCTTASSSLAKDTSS
T1 sequence (P37288 whole entry): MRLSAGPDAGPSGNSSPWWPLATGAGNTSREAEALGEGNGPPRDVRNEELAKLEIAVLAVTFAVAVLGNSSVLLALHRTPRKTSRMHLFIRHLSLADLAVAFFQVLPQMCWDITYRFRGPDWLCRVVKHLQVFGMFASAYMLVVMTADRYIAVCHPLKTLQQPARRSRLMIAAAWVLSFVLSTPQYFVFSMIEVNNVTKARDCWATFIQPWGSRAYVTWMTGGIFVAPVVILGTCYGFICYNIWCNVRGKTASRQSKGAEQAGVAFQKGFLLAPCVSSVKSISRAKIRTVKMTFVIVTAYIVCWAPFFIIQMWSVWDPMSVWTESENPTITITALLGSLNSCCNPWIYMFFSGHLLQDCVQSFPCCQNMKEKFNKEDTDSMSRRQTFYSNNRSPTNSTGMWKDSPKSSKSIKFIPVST

The term IC50 denotes the concentration that gives 50% inhibition. On to `O=C(Nc1cccnc1-n1cnc(Cn2nc(-c3ccc(Cl)cc3)n(C[C@H](O)C(F)(F)F)c2=O)n1)C1(F)CC1` [Example 57, N-{2-[3-({3-(4-Chlorophenyl)-5-oxo-4-[(2S)-3,3,3-trifluoro-2-hydroxypropyl]-4,5-dihydro-1H-1,2,4-triazol-1-yl}methyl)-1H-1,2,4-triazol-1-yl]pyridin-3-yl}-1-fluorocyclopropanecarboxamide], for which, on human V1a receptor, the IC50 amounted to 13 nM and the “ratio IC50 hV2/hV1a” value is 38.7. Further, the half-maximal inhibitory concentration (IC50) on human V2 receptor was 503 nM.
As for `O=C(Nc1cccnc1-n1cnc(Cn2nc(-c3ccc(Cl)cc3)n(C[C@H](O)C(F)(F)F)c2=O)n1)C1CS(=O)(=O)C1` [Example 58, N-{2-[3-({3-(4-Chlorophenyl)-5-oxo-4-[(2S)-3,3,3-trifluoro-2-hydroxypropyl]-4,5-dihydro-1H-1,2,4-triazol-1-yl}methyl)-1H-1,2,4-triazol-1-yl]pyridin-3-yl}thietane-3-carboxamide 1,1-dioxide], the IC50 came to 19.5 nM on human V1a receptor and 1140 nM at human V2 receptor. Besides, the “ratio IC50 hV2/hV1a” value on human V1a receptor was determined as 58.3.
For `O=C(Nc1cccnc1-n1cnc(Cn2nc(-c3ccc(Cl)cc3)n(C[C@H](O)C(F)(F)F)c2=O)n1)OCC(F)(F)F` [Example 62, 2,2,2-trifluoroethyl {2-[3-({3-(4-chlorophenyl)-5-oxo-4-[(2S)-3,3,3-trifluoro-2-hydroxypropyl]-4,5-dihydro-1H-1,2,4-triazol-1-yl}methyl)-1H-1,2,4-triazol-1-yl]pyridin-3-yl}carbamate], in that order: 19.5 nM, 957 nM and 49.1.
As to `O=C(NCC(F)(F)F)Nc1cccnc1-n1cnc(Cn2nc(-c3ccc(Cl)cc3)n(C[C@H](O)C(F)(F)F)c2=O)n1` [Example 63, 1-{2-[3-({3-(4-Chlorophenyl)-5-oxo-4-[(2S)-3,3,3-trifluoro-2-hydroxypropyl]-4,5-dihydro-1H-1,2,4-triazol-1-yl}methyl)-1H-1,2,4-triazol-1-yl]pyridin-3-yl}-3-(2,2,2-trifluoroethyl)urea], at human V1a receptor, the 50% inhibitory concentration (IC50) was determined as 3.15 nM and the “ratio IC50 hV2/hV1a” value turned out to be 366.1. On human V2 receptor, the IC50 amounted to 1150 nM.
The like results for `O=c1n(Cc2ncn(-c3cccnc3N3CCOCC3)n2)nc(-c2ccc(Cl)cc2)n1C[C@H](O)C(F)(F)F` [Example 64, 5-(4-Chlorophenyl)-2-({1-[2-(morpholin-4-yl)pyridin-3-yl]-1H-1,2,4-triazol-3-yl}methyl)-4-[(2S)-3,3,3-trifluoro-2-hydroxypropyl]-2,4-dihydro-3H-1,2,4-triazol-3-one] were, in that order, 16 nM, 33.4 and 535 nM.
As for `CC(C)(N)CNc1ncccc1-n1cnc(Cn2nc(-c3ccc(Cl)cc3)n(C[C@H](O)C(F)(F)F)c2=O)n1` [Example 65, 2-[(1-{2-[(2-Amino-2-methylpropyl)amino]pyridin-3-yl}-1H-1,2,4-triazol-3-yl)methyl]-5-(4-chlorophenyl)-4-[(2S)-3,3,3-trifluoro-2-hydroxypropyl]-2,4-dihydro-3H-1,2,4-triazol-3-one], the IC50 on human V1a receptor came to 190 nM; on human V2 receptor, 380 nM. For the same compound, the “ratio IC50 hV2/hV1a” value on human V1a receptor was 2.0.
Turning to `NC(=O)[C@H]1CCCN1c1ncccc1-n1cnc(Cn2nc(-c3ccc(Cl)cc3)n(C[C@H](O)C(F)(F)F)c2=O)n1` [Example 66, 1-{3-[3-({3-(4-Chlorophenyl)-5-oxo-4-[(2S)-3,3,3-trifluoro-2-hydroxypropyl]-4,5-dihydro-1H-1,2,4-triazol-1-yl}methyl)-1H-1,2,4-triazol-1-yl]pyridin-2-yl}-D-prolinamide], on human V1a receptor, the IC50 was found to be 43.5 nM and the “ratio IC50 hV2/hV1a” value is recorded as 8.4. The IC50 on human V2 receptor came out at 363 nM.
For `CC(C)(O)CNc1ncccc1-n1cnc(Cn2nc(-c3ccc(Cl)cc3)n(C[C@H](O)C(F)(F)F)c2=O)n1` [Example 67, 5-(4-Chlorophenyl)-2-[(1-{2-[(2-hydroxy-2-methylpropyl)amino]pyridin-3-yl}-1H-1,2,4-triazol-3-yl)methyl]-4-[(2S)-3,3,3-trifluoro-2-hydroxypropyl]-2,4-dihydro-3H-1,2,4-triazol-3-one], in that order: 76.5 nM, 2.0 and 157 nM.
For `NC(=O)[C@@H]1CCCN1c1ncccc1-n1cnc(Cn2nc(-c3ccc(Cl)cc3)n(C[C@H](O)C(F)(F)F)c2=O)n1` [Example 68, 1-{3-[3-({3-(4-Chlorophenyl)-5-oxo-4-[(2S)-3,3,3-trifluoro-2-hydroxypropyl]-4,5-dihydro-1H-1,2,4-triazol-1-yl}methyl)-1H-1,2,4-triazol-1-yl]pyridin-2-yl}-L-prolinamide], in that order: 63.5 nM, 6.9 and 437 nM.
For `O=c1n(Cc2ncn(-c3cccnc3NCCC(F)(F)F)n2)nc(-c2ccc(Cl)cc2)n1C[C@H](O)C(F)(F)F` [Example 69, 5-(4-Chlorophenyl)-4-[(2S)-3,3,3-trifluoro-2-hydroxypropyl]-2-[(1-{2-[(3,3,3-trifluoropropyl)amino]pyridin-3-yl}-1H-1,2,4-triazol-3-yl)methyl]-2,4-dihydro-3H-1,2,4-triazol-3-one], in that order: 235 nM, 1.4 and 320 nM.
For `O=C1CCC(CNc2ncccc2-n2cnc(Cn3nc(-c4ccc(Cl)cc4)n(C[C@H](O)C(F)(F)F)c3=O)n2)N1` (stereo partly drawn) [Example 70, 5-(4-Chlorophenyl)-2-{[1-(2-{[(5-oxopyrrolidin-2-yl)methyl]amino}pyridin-3-yl)-1H-1,2,4-triazol-3-yl]methyl}-4-[(2S)-3,3,3-trifluoro-2-hydroxypropyl]-2,4-dihydro-3H-1,2,4-triazol-3-one], at human V1a receptor, the IC50 stood at 150 nM and the “ratio IC50 hV2/hV1a” value came to 4.6. In addition, on human V2 receptor, the IC50 is 690 nM.
For `O=c1n(Cc2ncn(-c3cccnc3NCC(F)(F)F)n2)nc(-c2ccc(Cl)cc2)n1C[C@H](O)C(F)(F)F` [Example 71, 5-(4-Chlorophenyl)-2-[(1-{2-[(2,2,2-trifluoroethyl)amino]pyridin-3-yl}-1H-1,2,4-triazol-3-yl)methyl]-4-[(2S)-3,3,3-trifluoro-2-hydroxypropyl]-2,4-dihydro-3H-1,2,4-triazol-3-one], in that order: 150 nM, 1.6 and 240 nM.
The like results for `O=c1n(Cc2ncn(-c3cccnc3NCC3CS(=O)(=O)C3)n2)nc(-c2ccc(Cl)cc2)n1C[C@H](O)C(F)(F)F` [Example 72, 5-(4-Chlorophenyl)-2-{[1-(2-{[(1,1-dioxidothietan-3-yl)methyl]amino}pyridin-3-yl)-1H-1,2,4-triazol-3-yl]methyl}-4-[(2S)-3,3,3-trifluoro-2-hydroxypropyl]-2,4-dihydro-3H-1,2,4-triazol-3-one] were, in that order, 2050 nM, 15.6 and 32000 nM.
The like results for `CC(=O)Nc1ncccc1-n1cnc(Cn2nc(-c3ccc(Cl)cc3)n(C[C@H](O)C(F)(F)F)c2=O)n1` [Example 73, N-{3-[3-({3-(4-Chlorophenyl)-5-oxo-4-[(2S)-3,3,3-trifluoro-2-hydroxypropyl]-4,5-dihydro-1H-1,2,4-triazol-1-yl}methyl)-1H-1,2,4-triazol-1-yl]pyridin-2-yl}acetamide] were, in that order, 53 nM, 13.4 and 710 nM.
In the case of `O=C(CC(F)(F)F)Nc1ncccc1-n1cnc(Cn2nc(-c3ccc(Cl)cc3)n(C[C@H](O)C(F)(F)F)c2=O)n1` [Example 74, N-{3-[3-({3-(4-Chlorophenyl)-5-oxo-4-[(2S)-3,3,3-trifluoro-2-hydroxypropyl]-4,5-dihydro-1H-1,2,4-triazol-1-yl}methyl)-1H-1,2,4-triazol-1-yl]pyridin-2-yl}-3,3,3-trifluoropropanamide], at human V1a receptor, the IC50 was 5.6 nM and the “ratio IC50 hV2/hV1a” value turned out to be 154.5. The half-inhibitory concentration (IC50) on human V2 receptor was determined as 865 nM.
`O=C(Nc1ncccc1-n1cnc(Cn2nc(-c3ccc(Cl)cc3)n(C[C@H](O)C(F)(F)F)c2=O)n1)C1CC(F)(F)C1` [Example 80, N-{3-[3-({3-(4-Chlorophenyl)-5-oxo-4-[(2S)-3,3,3-trifluoro-2-hydroxypropyl]-4,5-dihydro-1H-1,2,4-triazol-1-yl}methyl)-1H-1,2,4-triazol-1-yl]pyridin-2-yl}-3,3-difluorocyclobutanecarboxamide]: the IC50 at human V1a receptor amounted to 6.65 nM; at human V2 receptor it was 1800 nM. Also, the “ratio IC50 hV2/hV1a” value on human V1a receptor was determined as 270.7.
The like results for `O=C(Nc1ncccc1-n1cnc(Cn2nc(-c3ccc(Cl)cc3)n(C[C@H](O)C(F)(F)F)c2=O)n1)C1(C(F)(F)F)CC1` [Example 81, N-{3-[3-({3-(4-Chlorophenyl)-5-oxo-4-[(2S)-3,3,3-trifluoro-2-hydroxypropyl]-4,5-dihydro-1H-1,2,4-triazol-1-yl}methyl)-1H-1,2,4-triazol-1-yl]pyridin-2-yl}-1-(trifluoromethyl)cyclopropanecarboxamide] were, in that order, 2.05 nM, 1350 nM and 658.5.
For `O=C(Nc1ncccc1-n1cnc(Cn2nc(-c3ccc(Cl)cc3)n(C[C@H](O)C(F)(F)F)c2=O)n1)C1CC1` [Example 83, N-{3-[3-({3-(4-Chlorophenyl)-5-oxo-4-[(2S)-3,3,3-trifluoro-2-hydroxypropyl]-4,5-dihydro-1H-1,2,4-triazol-1-yl}methyl)-1H-1,2,4-triazol-1-yl]pyridin-2-yl}cyclopropanecarboxamide], in that order: 5.35 nM, 570 nM and 106.5.
